pIC50: −log10 of the molar value. Converted amounts (≈) assume the structure as drawn.
Tests used:
P. aeruginosa PAO397 = assay: Broth microdilution MIC, P. aeruginosa PAO397; assay type: cell-based; settings: Pseudomonas aeruginosa, PAO397, 18 h, read-out: PAO397 KO MIC
Description: (§1) Exemplary compounds from the above Examples were tested to determine their minimum inhibitory concentration (MIC) for exemplary strains of Escherichia and Pseudomonas bacteria using broth microdilution methods. Assay procedures and results are described below.
(§2) Broth microdilution assays were conducted according to Clinical and Laboratory Standards Institute guidelines (CLSI, M07-A^11: Clinical and Laboratory Standards Institute. Methods for Dilution Antimicrobial Susceptibility Tests for Bacteria that Grow Aerobically; Approved Standard-11th Edition. Wayne, PA: CLSI, 2018). Briefly, bacterial suspensions were adjusted to a density equivalent to a 0.5 McFarland standard and diluted in sterile, cation-adjusted Mueller-Hinton broth (Beckton Dickinson) to yield a final inoculum between 2×10^5 and 8×10^5 colony-forming units (CFU)/mL. An inoculum volume of 98 μL was added to wells containing 2 μL of 2-fold serial dilutions of drug (prepared in DMSO). All inoculated microdilution trays were incubated in ambient air at 37° C. for 18 h. […] Performance of the assay was monitored by the use of laboratory quality-control strains (S. aureus ATCC 29213 and P. aeruginosa ATCC 27853) and levofloxacin, a compound with a defined MIC spectrum, in accordance with CLSI guidelines (CLSI, M100Ed29: Clinical and Laboratory Standards Institute. Performance Standards for Antimicrobial Susceptibility Testing, 29th Edition. Wayne, PA: CLSI, 2018).
(§3) Multiple enterobacteriaceae strains were tested, including both wild-type strains and multi-drug resistance pump deficient mutants. Specific strains tested included the following: • Wild-type P. aeruginosa PAO1, • P. aeruginosa PAO1 ΔmexABoprM—Disabled multi-drug efflux system Δ(MexAB-OprM), • P. aeruginosa PAO397—PAO1Δ(mexAB-oprM) Δ(mexCD-oprJ) Δ(mexEF-oprN) Δ(mexJK) Δ(mexXY) ΔopmH, • P. aeruginosa LESB58—Clinical isolate; colistin-resistant, isolated in the United Kingdom in 1988 from a patient with cystic fibrosis • E. coli JW0452-3 (BW25113 JacrA::kan)—Disabled multi-drug efflux system (AcrAB-TolC).
(§4) Experimental results are provided in Table 11, which provides MIC values for wild-type P. aeruginosa PAO1 (“PAO1 WT MIC”), P. aeruginosa PAO ΔmexABoprM (“PAO1 KO MIC”), P. aeruginosa PAO397 (“PAO397 KO MIC”), P. aeruginosa LESB58 (“LESB58”), and E. coli JW0452-3 (BW25113 JacrA::kan) (“E. coli KO MIC”).

[1] = test system: P. aeruginosa PAO1 ΔmexABoprM; assay: Broth microdilution MIC, P. aeruginosa PAO1 ΔmexABoprM; assay type: cell-based; settings: Pseudomonas aeruginosa, PAO1, 18 h, read-out: PAO1 KO MIC
Description: as §1, §2, §3, §4

[2] = test system: Wild-type P. aeruginosa PAO1; assay: Broth microdilution MIC, wild-type P. aeruginosa PAO1; assay type: cell-based; settings: Pseudomonas aeruginosa; wild-type P. aeruginosa PAO1, 37° C., 18 h; read-out: PAO1 WT MIC
Description: as §1, §2, §3, §4

[3] = molecular target: T1, recombinant LpxA enzyme (P. aeruginosa) (Pseudomonas aeruginosa, UniProt Q9X6P4); assay: LpxA in vitro substrate acylation assay with RapidFire MS analysis (P. aeruginosa); assay type: biochemical; settings: P. aeruginosa enzyme 0.5 nM, PaACP-C10, 30 min
T1 sequence (Q9X6P4 1-258): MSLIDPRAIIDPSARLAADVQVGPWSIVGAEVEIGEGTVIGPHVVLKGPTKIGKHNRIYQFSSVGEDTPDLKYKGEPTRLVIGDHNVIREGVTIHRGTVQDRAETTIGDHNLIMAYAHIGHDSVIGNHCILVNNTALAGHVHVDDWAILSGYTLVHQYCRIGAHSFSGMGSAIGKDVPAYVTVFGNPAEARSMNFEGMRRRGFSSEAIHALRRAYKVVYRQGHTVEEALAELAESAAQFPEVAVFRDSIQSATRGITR
Description: Exemplary compounds from the above Examples were tested for ability to inhibit LpxA activity using an in vitro substrate acylation assay with RapidFire™ MS analysis. Assay procedures and results are described below.
Reactions were carried out in a final volume of 30 μL with 25 mM HEPES (pH 7.3), 150 mM NaCl, 2 mM DTT, 0.01% BSA, 5 μM UDP-GlcNac, recombinant LpxA enzyme (0.5 nM P. aeruginosa or 1.0 nM E. coli, both produced at Evotec), 0.5 μM acyl-transfer reagent (decanoyl P. aeruginosa acyl-carrier protein [PaACP-C10] or myristoyl E. coli acyl-carrier protein [EcACP-C1-4], both produced at Evotec), and 1% DMSO containing test compound. After 30 min incubation at room temperature, reactions were stopped by addition of 30 μL of 10% TCA in water.
Samples were centrifuged (4350 rpm, 4° C., 5 min), and then subjected to RapidFire™ MS analysis on an Agilent RapidFire 300 coupled to an Agilent 6460 triple-quadrupole mass spectrometer. Analytes were retained on a C4 (type A) cartridge using the following solvents and flow rates: • Pump 1—H2O with 5 mM NH4OAc at 2.0 mL/min, • Pump 2—MeOH/H2O (90/10) at 1.5 mL/min, • Pump 3—MeOH/H2O (90/10) at 0.5 mL/min, and • Pump 4—ACN (organic)/H2O (aqueous). Substrate and product of the reaction were detected in negative mode ESI-MS/MS by MRM (multiple reaction monitoring) of transitions 606.0/385.0 (UDP-GlcNAc substrate) and 776.2/385.0 (UDP-3-O—(R-3-hydroxydecanoyl)-GlcNAc product, for P. aeruginosa LpxA assay) or 832.2/385.0 (UDP-3-O—(R-3-hydroxymyristoyl)-GlcNAc product, for E. coli LpxA assay).
For IC50 determinations, peak areas of the substrate and product were compared to compute the proportion of product formed by the LpxA enzyme at each compound concentration.

P. aeruginosa LESB58 = assay: Broth microdilution MIC, P. aeruginosa LESB58; assay type: cell-based; settings: Pseudomonas aeruginosa; P. aeruginosa LESB58 clinical isolate, colistin-resistant, 37° C., 18 h
Description: as §1, §2, §3, §4

Row | SMILES | MIC (P. aeruginosa PAO397) | MIC [1] | MIC [2] | pIC50 [3] | MIC (P. aeruginosa LESB58)
1 | CCc1ccccc1SCC(=O)N(Cc1ccc(C#N)cc1)Cc1nnc(N)o1 [Compound No. 10] | < 1 µg/mL | 1 to 16 µg/mL (≈ 2.45 to 39.3 µM) | > 64 µg/mL |  | 
2 | NCc1ccc(CN(Cc2nnc(N)o2)C(=O)CSc2ccccc2Cl)cc1 [Compound No. 61, N-[[4-(Aminomethyl)phenyl]methyl]-N-[(5-amino-1,3,4-oxadiazol-2-yl)methyl]-2-(2-chlorophenyl)sulfanyl-acetamide] | 16 to 64 µg/mL (≈ 38.3 to 153 µM) |  | > 64 µg/mL | < 6.00 | 
3 | Cc1nnc(CN(Cc2ccc(C#N)cc2)C(=O)CSc2ccccc2Cl)o1 [Compound No. 65, 2-(2-Chlorophenyl)sulfanyl-N-[(4-cyanophenyl)methyl]-N-[(5-methyl-1,3,4-oxadiazol-2-yl)methyl]acetamide] | 1 to 16 µg/mL (≈ 2.42 to 38.8 µM) | > 64 µg/mL | > 64 µg/mL |  | 
4 | N#Cc1ccc(CN(C(=O)CSc2ccccc2Cl)C2(c3nnc(N)o3)CC2)c(F)c1 [compound 23] | 1 to 16 µg/mL (≈ 2.18 to 34.9 µM) |  | > 64 µg/mL | 7.00 to 7.70 | 
5 | N#Cc1ccc(CN(Cc2cc[nH]n2)C(=O)CSc2ccccc2Cl)cc1 [compound 49] | 1 to 16 µg/mL (≈ 2.52 to 40.3 µM) |  | > 64 µg/mL | 6.00 to 7.00 | 
6 | N#Cc1ccc(CN(Cc2cn[nH]c2)C(=O)CSc2ccccc2Cl)cc1 [compound 50] | 1 to 16 µg/mL (≈ 2.52 to 40.3 µM) |  | > 64 µg/mL | 6.00 to 7.00 | 
7 | N#Cc1ccc(CN(Cc2ccc3cn[nH]c3c2)C(=O)CSc2ccccc2Cl)cc1 [compound 71] |  |  | > 64 µg/mL | < 6.00 | 
8 | Cc1cnc(CN(Cc2ccc(C#N)cc2)C(=O)CSc2ccccc2Cl)o1 [compound 72] | 1 to 16 µg/mL (≈ 2.43 to 38.8 µM) |  | > 64 µg/mL | 6.00 to 7.00 | 
9 | [2H]C([2H])(Oc1cc(F)cc(F)c1C([2H])([2H])C([2H])([2H])[2H])C(=O)N(Cc1nnc(N)o1)Cc1ccc([N+](=O)[O-])cc1F [compound 78] |  |  | 1 to 16 µg/mL (≈ 2.12 to 33.9 µM) | > 7.70 | 1 to 16 µg/mL (≈ 2.12 to 33.9 µM)
10 | CCc1c(F)cc(F)cc1OCC(=O)N(Cc1ccc2c(c1)CC(=O)N2)Cc1nnc(N)o1 [compound 83] |  |  | > 64 µg/mL | > 7.70 | 16 to 64 µg/mL (≈ 35 to 140 µM)
11 | Nc1nnc(CN(Cc2ccc([N+](=O)[O-])cc2)C(=O)COc2cc(F)cc(F)c2C2CC2)o1 [compound 84] |  |  | 16 to 64 µg/mL (≈ 34.8 to 139 µM) | > 7.70 | 1 to 16 µg/mL (≈ 2.18 to 34.8 µM)
12 | Nc1nnc(CN(Cc2ccc([N+](=O)[O-])cc2F)C(=O)COc2cc(F)cc(F)c2C2CC2)o1 [compound 86] |  |  | 16 to 64 µg/mL (≈ 33.5 to 134 µM) | > 7.70 | 1 to 16 µg/mL (≈ 2.09 to 33.5 µM)
13 | Nc1nnc(CN(Cc2ccc([N+](=O)[O-])nc2)C(=O)COc2cc(F)cc(F)c2C2CC2)o1 [compound 87] |  |  | > 64 µg/mL | 7.00 to 7.70 | > 64 µg/mL
14 | [2H]C([2H])(Oc1ccccc1C([2H])([2H])C([2H])([2H])[2H])C(=O)N(Cc1ccc(C#N)nc1)Cc1nnc(N)o1 [compound 88] |  |  | > 64 µg/mL | 7.00 to 7.70 | > 64 µg/mL
15 | Nc1nnc(CN(Cc2csc([N+](=O)[O-])c2)C(=O)COc2cc(F)cc(F)c2C2CC2)o1 [compound 89] |  |  | > 64 µg/mL | 7.00 to 7.70 | > 64 µg/mL
16 | CCc1ccccc1SCC(=O)N(CC(=O)NC)Cc1ccc(-n2cncn2)cc1 [compound 90] |  |  | > 64 µg/mL | 6.00 to 7.00 | 

Reference: patent US20240166612A1, “ARYLTHIOETHER ACETAMIDE AND RELATED COMPOUNDS AND THEIR USE IN TREATING MEDICAL CONDITIONS” (X-Biotix Therapeutics, Inc., priority 2021, published 2024)
